Data as given in patent publication US20070059359A1, “Immediate-release and high-drug-load pharmaceutical formulations of non-micronised (4-chlorophenyl)[4-(4-pyridylmethyl)phthalazin-1-yl] and salts thereof” (priority 2005, published 2007).

Columns and labels:
VEGFR kinases = settings: not dependent on a specific ligand; cited from earlier work
[1] = Hazard classification, internal workspace limit; settings: classified as being hazardous

Row | SMILES | inhibition of VEGFR kinases (VEGFR kinases) | internal workspace limit [1] [mg/m^3]
1 | Clc1ccc(Nc2nnc(Cc3ccncc3)c3ccccc23)cc1 [(4-chlorophenyl)[4-(4-pyridylmethyl)-phthalazin-1-yl]] | inhibitor of all three VEGFR kinases | 
2 | Clc1ccc(Nc2nnc(Cc3ccncc3)c3ccccc23)cc1 [pynasunate, (4-chlorophenyl)[4-(4-pyridylmethyl)-phthalazin-1-yl]ammonium hydrogen succinate] |  | 0.1
